From publication PMC8994274, “A proteolysis-targeting chimera molecule selectively degrades ENL and inhibits malignant gene expression and tumor growth” (Journal of Hematology & Oncology, 2022)
Read-outs that look alike come from different tables or passages of the source.

Assays:
[1] = system: Panc1 cells; assay: Antiproliferation assay, Panc1; details: Homo sapiens, PANC-1, 168 h, read-out: Antiproliferative activity, EC50, Panc1
[2] = system: Hela cells; assay: Antiproliferation assay, Hela; details: Homo sapiens, read-out: Antiproliferative activity, EC50, Hela
[3] = system: U266 cells; assay: Antiproliferation assay (XTT), U266; details: Homo sapiens, U-266, 168 h, read-out: Antiproliferative activity, EC50, U266
Description: (§2) Proliferation inhibition assays for suspension blood cancer cells were performed using an XTT assay kit (Biotium), following our previous methods [22]. EC50 values were determined using Prism 5 and from at least three independent experiments.

[4] = target: T1, ENL (Homo sapiens, UniProt Q03111); assay: ENL degradation in MV4;11 cells (Western blot); format: cell-based; set-up: endogenous in cells; host or cells: MV4;11; details: for Dmax: MV4-11, MV4;11 cells, read-out: Dmax (maximal degradation) of ENL; for Dmax / DC50: 24 h; for DC50: read-out: DC50 (concentration at which a protein is reduced by 50%) of ENL
T1 sequence (Q03111 1-559): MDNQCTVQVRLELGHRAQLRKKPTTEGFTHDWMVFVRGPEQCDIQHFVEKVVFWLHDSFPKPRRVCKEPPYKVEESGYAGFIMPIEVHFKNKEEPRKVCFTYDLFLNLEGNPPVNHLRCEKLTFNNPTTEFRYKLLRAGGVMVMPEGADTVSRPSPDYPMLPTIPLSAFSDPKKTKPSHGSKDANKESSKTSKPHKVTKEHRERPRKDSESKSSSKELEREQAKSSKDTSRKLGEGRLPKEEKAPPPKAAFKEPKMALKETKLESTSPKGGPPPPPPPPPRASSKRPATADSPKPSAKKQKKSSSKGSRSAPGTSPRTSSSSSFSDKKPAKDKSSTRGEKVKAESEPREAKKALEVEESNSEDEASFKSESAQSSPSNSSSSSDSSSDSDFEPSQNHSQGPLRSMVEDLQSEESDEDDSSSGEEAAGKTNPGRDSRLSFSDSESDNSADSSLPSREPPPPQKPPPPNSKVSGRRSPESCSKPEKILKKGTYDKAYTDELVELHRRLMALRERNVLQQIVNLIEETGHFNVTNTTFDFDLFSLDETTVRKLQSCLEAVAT
Description: We next tested whether these compounds degrade ENL and AF9 in MV4;11 leukemia cells with the MLL1-AF4 oncogene. Upon compound treatment for 24 h, the cells were washed, lysed, and the lysates subjected to SDS-PAGE (sodium dodecyl sulfate–polyacrylamide gel electrophoresis) followed by detection with Western blot.
3 × 10^6 cells/well were treated with increasing concentrations of a compound for 1 day, and whole proteins were extracted. Equal amounts of proteins were separated on SDS-PAGE and transferred to PVDF membranes. The blots were probed with primary antibodies, followed by anti-rabbit IgG (Thermo Scientific) secondary antibodies. The primary antibodies against ENL (Cell signaling #14893), AF9 (Novusbio #NB100-1565), DOT1L (Cell signaling #77087), AFF4 (Abcam #ab103586), Cyclin T1 (Cell signaling #81464), H3K79me2 (Cell signaling #5427), H3K79me1 (Cell signaling #9398), Histone H3 (Cell signaling #4499), FLAG (Sigma-Aldrich #F1804), β-Actin (Cell signaling #4970) were used in this study.

[5] = target: T2, ENL YEATS (Homo sapiens, UniProt Q03111)
T2 sequence (Q03111 1-138): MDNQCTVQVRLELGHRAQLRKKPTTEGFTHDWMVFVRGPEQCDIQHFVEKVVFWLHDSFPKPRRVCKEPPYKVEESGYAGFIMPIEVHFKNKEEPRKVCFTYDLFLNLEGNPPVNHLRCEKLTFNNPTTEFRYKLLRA
Description: cDNA for human ENL YEATS domain (1–138) was synthesized (by Genscript) and cloned into pET-28a vector.
(§3) AlphaScreen binding assay was developed using Perkin-Elmer AlphaScreen Histidine (Nickel Chelate) Detection Kit, following a reported protocol [39]. Data were imported into Prism (version 5.0), and IC50 values from 3 independent experiments with standard deviation were obtained by using a standard dose–response curve fitting.

[6] = target: T3, AF9 YEATS (Homo sapiens, UniProt P42568); assay: ALPHA assay, inhibition of the AF9 YEATS-H3K27ac interaction
T3 sequence (P42568 1-138 limits assumed): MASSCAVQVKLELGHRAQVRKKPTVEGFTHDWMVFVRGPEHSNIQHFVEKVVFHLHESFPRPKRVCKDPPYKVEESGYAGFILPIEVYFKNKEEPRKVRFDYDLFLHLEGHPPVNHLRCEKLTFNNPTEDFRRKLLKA
Description: as §3

[7] = system: MV4;11 cells; assay: Antiproliferation assay (XTT), MV4;11; details: Homo sapiens, MV4-11, 168 h, read-out: Antiproliferative activity, EC50, MV4;11
Description: as §2

[8] = system: Molm-13 cells; assay: Antiproliferation assay (XTT), Molm-13; details: for EC50: Homo sapiens, MOLM-13, 168 h, read-out: Antiproliferative activity, EC50, Molm13
Description: as §2

[9] = system: RPMI-8226 cells; assay: Antiproliferation assay (XTT), RPMI-8226; details: Homo sapiens, RPMI-8226, 168 h, read-out: Antiproliferative activity, EC50, RPMI-8226
Description: as §2

[10] = system: Kasumi-1 cells; assay: Antiproliferation assay (XTT), Kasumi-1; details: Homo sapiens, Kasumi 1, 168 h, read-out: Antiproliferative activity, EC50, Kasumi-1
Description: as §2

[11] = system: blood and solid tumor cells; assay: Antiproliferation assay, ranges given over several cell lines; format: cell-based
Description: as §2

[12] = target: T1, ENL; assay: ENL in nucleus and cytoplasm of MV4;11 cells (Western blot); format: cell-based; set-up: endogenous in cells; host or cells: MV4;11; details: 4 days, compound 1 at 500 nM
Description: Upon treatment of MV4;11 cells with these compounds for 4 days, cytoplasmic and nuclear proteins were separated and subjected to SDS-PAGE/Western blot.
(§1) 3 × 10^6 cells/well were treated with increasing concentrations of a compound for 1 day, and whole proteins were extracted. Equal amounts of proteins were separated on SDS-PAGE and transferred to PVDF membranes. The blots were probed with primary antibodies, followed by anti-rabbit IgG (Thermo Scientific) secondary antibodies.

[13] = target: T1, ENL; assay: Rescue of compound 1-mediated ENL degradation in MV4;11 cells; format: cell-based; set-up: endogenous in cells; host or cells: MV4;11; details: 2 h pre-treatment, then co-treatment with 1 (500 nM) for 24 h
Description: as §1

SMILES	EC50 [1] [µM]	EC50 ([2]; 168 h) [µM]	EC50 [3] [µM]	Dmax [4] [%]	DC50 ([4]; MV4;11 cells) [µM]	IC50 [5] [µM]	IC50 [6] [µM]	EC50 [7] [µM]	EC50 [8] [µM]	EC50 [9] [µM]	EC50 ([2]; 72 h) [µM]	ENL reduction ([4]; MV4;11 cells, even at 5 μM)	EC50 ([11]; non-selective activities, read-out: EC50 for blood and solid tumor cells (range over cell lines)) [µM]	EC50 [10] [µM]	Cytotoxic action over time ([11]; cancerous cells)	ENL level in the nucleus [12]	Effect on compound 1-mediated ENL degradation [13]	Antiproliferative activity, EC50, Molm13 ([8]; 7-day incubation)
C[C@H]1CCCN1Cc1nc2cc(NC(=O)c3ccc4c(cnn4CCCCCCNc4cccc5c4C(=O)N(C4CCC(=O)NC4=O)C5=O)c3)ccc2[nH]1 (stereo partly shown) [Compound 2]	> 50	> 50	17	~68	~0.05	0.1	0.317 ± 0.058	1.6 ± 0.01	0.49 ± 0.43	6 ± 0.9				19 ± 3.4				
C[C@H]1CCCN1Cc1nc2cc(NC(=O)c3ccc4c(cnn4CCCCNc4cccc5c4C(=O)N(C4CCC(=O)NC4=O)C5=O)c3)ccc2[nH]1 (stereo partly shown) [Compound 3]	> 50	> 50	2.9 ± 1.8	89	0.072	0.61	0.058 ± 0.02	1.2 ± 0.05	2.1 ± 0.03	19 ± 3.8				50				
C[C@H]1CCCN1Cc1nc2cc(NC(=O)c3ccc4c(cnn4C)c3)ccc2[nH]1 [SGC-iMLLT, reference compound]	> 50	> 50	> 50				0.011 ± 0.0006	> 50	17 ± 1.1	> 50				> 50		no reduction or even an increase	dose-dependently inhibit 1-mediated ENL degradation	weak activity
CC(C)C[C@H](NC(=O)[C@H](Cc1ccccc1)NC(=O)c1cnccn1)B(O)O [bortezomib]																	dose-dependently inhibit 1-mediated ENL degradation	

Now from value to compound, other results behind:

EC50 [1] [µM]	EC50 ([2]; 168 h) [µM]	EC50 [3] [µM]	Dmax [4] [%]	DC50 ([4]; MV4;11 cells) [µM]	IC50 [5] [µM]	IC50 [6] [µM]	EC50 [7] [µM]	EC50 [8] [µM]	EC50 [9] [µM]	EC50 ([2]; 72 h) [µM]	ENL reduction ([4]; MV4;11 cells, even at 5 μM)	EC50 ([11]; non-selective activities, read-out: EC50 for blood and solid tumor cells (range over cell lines)) [µM]	SMILES	EC50 [10] [µM]	Cytotoxic action over time ([11]; cancerous cells)	ENL level in the nucleus [12]	Effect on compound 1-mediated ENL degradation [13]	Antiproliferative activity, EC50, Molm13 ([8]; 7-day incubation)
								0.98 ± 0.04	1.4 ± 0.46	3.8 ± 1.2	did not reduce ENL	1 to 3.8	C[C@H]1CCCN1Cc1nc2cc(NC(=O)c3ccc4c(cnn4CCCCNC(=O)CC45CC6CC(CC(C6)C4)C5)c3)ccc2[nH]1 [Compound 4]		killing cancerous cells non-selectively within 3 days			
> 50	> 50	> 50					> 50	> 50	> 50				O=C1CCC(N2C(=O)c3ccccc3C2=O)C(=O)N1 (stereo not shown) [thalidomide, reference compound]	> 50		did not reduce	dose-dependently inhibit 1-mediated ENL degradation	
